Data reported in US11569513B1, “Redox flow battery carrier molecule” (Triad National Security, LLC, priority 2020, dated 2023).

Assays:
Assay type in all cases: physicochemical
[1] = Bulk cycling with broadened voltage window (galvanostatic 2 electron charging and discharging); details: voltage window broadened to include the next wave; over 25 cycles
Experimental: FIG. 6. Galvanostatic 2 electron charging and discharging of a 1 mM solution of Fe(TREN-Pic) in 0.1 M TBAPF6 in MeCN, charging and discharging rates were both 1 mA and potential cutoffs were −2.14 V vs Ag^+ during charging and −0.4 V vs Ag^+ during discharging.
FIG. 8. Metrics obtained from bulk electrolysis displaying high coulombic efficiencies for the charge/discharge cycling and the complexes capability to reversibly store multiple electron equivalents.
(§1) In the negative portion of a cyclic voltammogram four features at −0.93, −2.10, −2.28, and −2.55V are observed with current ratios (i[cathodic]/i[anodic]) of 1.01, 0.67, 1.17, and 1.01 respectively. These were obtained with a 1 mM solution of Fe(TREN-Pic) in 0.1M tetrabutylammonium hexafluorophosphate in acetonitrile using a glassy carbon working electrode, platinum wire counter, and a 0.01M silver tetrafluoroborate reference electrode. When the −0.93V wave is subjected to bulk electrolytic cycling over 25 repetitions, a high Coulombic efficiency is calculated (˜95%) with an unoptimized slow decay in utilization (electrons stored per redox carrier molecule) of 4% over the first ten cycles. […] This represents only the third known complex to display this behavior (JACS, 2016, 15378 and Journal of Power Sources, 2016, 681).

[2] = Bulk electrolytic cycling (galvanostatic 1 electron charging and discharging) of the −0.93V wave; details: over the first ten cycles, unoptimized
Experimental: FIG. 3. Galvanostatic 1 electron charging and discharging of a 1 mM solution of Fe(TREN-Pic) in 0.1 M TBAPF6 in MeCN, charging and discharging rates were both 1 mA and potential cutoffs were −1.3 V vs Ag^+ during charging and −0.4 V vs Ag^+ during discharging.
FIG. 5. Metrics obtained from bulk electrolysis displaying high coulombic efficiencies for the charge/discharge cycling.
as §1

[3] = Cyclic voltammogram, negative region, 1 mM solution in 0.1M TBAPF6 in acetonitrile
Experimental: FIG. 2. Voltammogram of the […]/negative region of a 1 mM solution of Fe(TREN-Pic) in 0.1 M tetrabutylammonium hexafluorophosphate (TBAPF6) in acetonitrile (MeCN), obtained using a glassy carbon working electrode, a platinum wire counter electrode, and a 0.010 M AgBF4 reference electrode.
as §1

decay over cycling [1]: significant decay
decay in utilization (electrons stored per redox carrier molecule) [2]: 4%
potential of first feature in negative portion of cyclic voltammogram ([3]; 1 mM in 0.1M tetrabutylammonium hexafluorophosphate in acetonitrile, glassy carbon working electrode, platinum wire counter, 0.01M silver tetrafluoroborate reference, first feature): −0.93 V
current ratio (i[cathodic]/i[anodic]) ([3]; feature at −0.93 V): 1.01
current ratio (i[cathodic]/i[anodic]) ([3]; feature at −2.10 V): 0.67
current ratio (i[cathodic]/i[anodic]) ([3]; feature at −2.28 V): 1.17
current ratio (i[cathodic]/i[anodic]) ([3]; feature at −2.55 V): 1.01
potential of fourth feature in negative portion of cyclic voltammogram ([3]; same conditions, fourth feature): −2.55 V
potential of second feature in negative portion of cyclic voltammogram ([3]; same conditions, second feature): −2.10 V
potential of third feature in negative portion of cyclic voltammogram ([3]; same conditions, third feature): −2.28 V
Substance: Fe III tris(2-aminoethyl)amine (TREN) picolinic (PIC) [Fe(TREN-Pic)]
